Test results as given in patent US8163793B2, “Proline derivatives” (Hoffman-La Roche Inc., priority 2009, dated 2012).
Counter-ions that a name gives are not always drawn.

Legend:
[1] = target: Cathepsin S (UniProt P25774); assay: Cathepsin enzyme inhibition assay (fluorogenic peptide substrate Z-Val-Val-Arg-AMC), Cathepsin S; type: biochemical, human and mouse; details: enzyme 1 nM, substrate 20 μM, pH 6.5; read-out: CatS IC50
How it was run: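 Human or mouse cathepsin S (1 nM) was run in 100 mM potassium phosphate pH 6.5 with 5 mM EDTA, 0.001% Triton X-100 and 5 mM DTT. The rise in AMC fluorescence from cleavage was measured, and IC50 values were calculated by standard methods and expressed in μM.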

[2] = target: Cat L (UniProt P07711); assay: Cathepsin enzyme inhibition assay (fluorogenic peptide substrate Z-Val-Val-Arg-AMC), Cathepsin L; type: biochemical, human and mouse; details: for IC50: enzyme 1 nM, substrate 20 μM, pH 6.5, read-out: CatL IC50
How it was run: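 Cathepsin L at 1 nM was mixed with compound, then started with 20 μM Z-Val-Val-Arg-AMC in pH 6.5 potassium phosphate with EDTA, Triton X-100 and 5 mM DTT. AMC fluorescence (ex 360/em 465 nm) was followed over 20 min. IC50 is given in μM.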

SMILES | IC50 [1] [nM] | IC50 [2] [nM] | CatL, % @25 uM ([2]; @25 uM compound) [% @25 uM]
N#CC1(NC(=O)[C@@H]2C[C@@H](S(=O)(=O)c3ccc(N4CCNCC4)cc3Cl)CN2C(=O)C2(C(F)(F)F)CC2)CC1 [Example 163, (2S,4R)-4-(2-Chloro-4-piperazin-1-yl-benzenesulfonyl)-1-(1-trifluoromethyl-cyclopropanecarbonyl)-pyrrolidine-2-carboxylic acid (1-cyano-cyclopropyl)-amide formiate] | 0.3 | 2620 | 
CC(=O)N1C[C@H](S(=O)(=O)c2ccc(N3CCCCC3)cc2Cl)C[C@H]1C(=O)NC1(C#N)CC1 [Example 133, (2S,4R)-1-Acetyl-4-(2-chloro-4-piperidin-1-yl-benzenesulfonyl)-pyrrolidine-2-carboxylic acid (1-cyano-cyclopropyl)-amide formiate] | 0.9 | 23400 | 
N#CC1(NC(=O)[C@@H]2C[C@@H](S(=O)(=O)c3ccc(OCC(F)(F)F)cc3Cl)CN2C(=O)C2CC2c2ccccc2)CC1 (stereo partly drawn) [Example 246] | 0.245 | 185 | 
N#CC1(NC(=O)[C@H]2C[C@@H](S(=O)(=O)c3ccc(-n4cccn4)cc3Cl)CN2C(=O)C2(C(F)(F)F)CC2)CC1 [Example 165, (2R,4R)-4-(2-Chloro-4-pyrazol-1-yl-benzenesulfonyl)-1-(1-trifluoromethyl-cyclopropanecarbonyl)-pyrrolidine-2-carboxylic acid (1-cyano-cyclopropyl)-amide] | 110 | ≥ 25000 | 
Cc1cc(N2C[C@H](S(C)(=O)=O)C[C@H]2C(=O)NC2(C#N)CC2)n(-c2ccc(C(F)(F)F)cc2)n1 [Example 462, (2S,4R)-4-Methanesulfonyl-1-[5-methyl-2-(4-trifluoromethyl-phenyl)-2H-pyrazol-3-yl]-pyrrolidine-2-carboxylic acid (1-cyano-cyclopropyl)-amide] | 9490 | > 25000 | 
N#CC1(NC(=O)[C@@H]2C[C@@H](S(=O)(=O)c3ccc(OCC(F)(F)F)cc3Cl)CN2C(=O)C2(c3ccc(Cl)c(Cl)c3)CC2)CC1 [Example 239, (2S,4R)-4-[2-Chloro-4-(2,2,2-trifluoro-ethoxy)-benzenesulfonyl]-1-[1-(3,4-dichloro-phenyl)-cyclopropanecarbonyl]-pyrrolidine-2-carboxylic acid (1-cyano-cyclopropyl)-amide] | 0.08 | 84 | 
Cc1cc(N2C[C@H](S(=O)(=O)c3ccccc3C(F)(F)F)C[C@H]2C(=O)NC2(C#N)CC2)n(C2CCN(C(=O)OCc3ccccc3)CC2)n1 [Example 406, 4-{5-[(2S,4R)-2-(1-Cyano-cyclopropylcarbamoyl)-4-(2-trifluoromethyl-benzenesulfonyl)-pyrrolidin-1-yl]-3-methyl-pyrazol-1-yl}-piperidine-1-carboxylic acid Benzyl Ester] | 4 | ≥ 25000 | 
N#CC1(NC(=O)[C@@H]2C[C@@H](S(=O)(=O)c3ccc(Br)cc3C(F)(F)F)CN2)CC1 [Example 18, (2S,4R)-4-(4-Bromo-2-trifluoromethyl-benzenesulfonyl)-pyrrolidine-2-carboxylic acid (1-cyano-cyclopropyl)-amide hydrochloride] | 3.3 | 30300 | 
C[C@H](Oc1ccc(S(=O)(=O)[C@@H]2C[C@@H](C(=O)NC3(C#N)CC3)N(C(=O)C(C)(C)C)C2)c(Cl)c1)C(F)(F)F [Example 203, (2S,4R)-4-[2-Chloro-4-((S)-2,2,2-trifluoro-1-methyl-ethoxy)-benzenesulfonyl]-1-(2,2-dimethyl-propionyl)-pyrrolidine-2-carboxylic acid (1-cyano-cyclopropyl)-amide] | 0.8 | 9330 | 
N#CC1(NC(=O)[C@@H]2C[C@@H](S(=O)(=O)c3ccccc3Cl)CN2C(=O)c2n[nH]c3cc(Cl)ccc23)CC1 [Example 410, (2S,4R)-4-(2-Chloro-benzenesulfonyl)-1-(6-chloro-1H-indazole-3-carbonyl)-pyrrolidine-2-carboxylic acid (1-cyano-cyclopropyl)-amide] | 4.8 | 29700 | 
Cc1cc(N2C[C@H](S(=O)(=O)CC3CC3)C[C@H]2C(=O)NC2(C#N)CC2)n(CCc2ccccc2)n1 [Example 470, (2S,4R)-4-Cyclopropylmethanesulfonyl-1-(5-methyl-2-phenethyl-2H-pyrazol-3-yl)-pyrrolidine-2-carboxylic acid (1-cyano-cyclopropyl)-amide] | 2790 |  | 94
Cc1cc(N2C[C@H](S(=O)(=O)c3ccccc3C(F)(F)F)C[C@H]2C(=O)NC2(C#N)CC2)n(-c2cccc(Cl)c2)n1 [Example 233, (2S,4R)-1-[2-(3-Chloro-phenyl)-5-methyl-2H-pyrazol-3-yl]-4-(2-trifluoromethyl-benzenesulfonyl)-pyrrolidine-2-carboxylic acid (1-cyano-cyclopropyl)-amide] | 0.465 | 21100 | 
N#CC1(NC(=O)[C@@H]2C[C@@H](S(=O)(=O)c3ccccc3Cl)CN2C(=O)C2(c3cccc(Cl)c3)CC2)CC1 [Example 428, (2S,4R)-1-(1-(3-chlorophenyl)cyclopropanecarbonyl)-4-(2-chlorophenylsulfonyl)-N-(1-cyanocyclopropyl)pyrrolidine-2-carboxamide] | 0.415 | 335 | 
N#CC1(NC(=O)[C@@H]2C[C@@H](S(=O)(=O)c3ccccc3Cl)CN2C(=O)C(F)(F)c2ccc(Cl)cc2)CC1 [Example 442, (2S,4R)-4-(2-Chloro-benzenesulfonyl)-1-[2-(4-chloro-phenyl)-2,2-difluoro-acetyl]-pyrrolidine-2-carboxylic acid (1-cyano-cyclopropyl)-amide] | 0.615 | 240 | 
N#CC1(NC(=O)[C@@H]2C[C@@H](S(=O)(=O)c3ccccc3Cl)CN2S(=O)(=O)c2ccc(-c3ccccc3)cc2)CC1 [Example 316, (2S,4R)-1-(Biphenyl-4-sulfonyl)-4-(2-chloro-benzenesulfonyl)-pyrrolidine-2-carboxylic acid (1-cyano-cyclopropyl)-amide] | 0.3 | 5240 | 
N#CC1(NC(=O)[C@@H]2C[C@@H](S(=O)(=O)c3ccccc3Cl)CN2C(=O)C2(c3ccncc3)CC2)CC1 [Example 285, (2S,4R)-4-(2-Chloro-benzenesulfonyl)-1-(1-pyridin-4-yl-cyclopropanecarbonyl)-pyrrolidine-2-carboxylic acid (1-cyano-cyclopropyl)-amide] | 0.227 | 2600 | 
COCCOc1ccc(S(=O)(=O)[C@@H]2CC(C(=O)NC3(C#N)CC3)N(C(=O)C3(c4ccc(Cl)nc4)CC3)C2)c(Cl)c1 (stereo partly drawn) [Example 378, (R)-4-[2-Chloro-4-(2-methoxy-ethoxy)-benzenesulfonyl]-1-[1-(6-chloro-pyridin-3-yl)-cyclopropanecarbonyl]-pyrrolidine-2-carboxylic acid (1-cyano-cyclopropyl)-amide] | 0.1 | 200 | 
N#CC1(NC(=O)[C@@H]2C[C@@H](S(=O)(=O)c3ccccc3Cl)CN2C(=O)C2(c3ccc(Cl)c(F)c3)CC2)CC1 [Example 446, (2S,4R)-4-(2-Chloro-benzenesulfonyl)-1-[1-(4-chloro-3-fluoro-phenyl)-cyclopropanecarbonyl]-pyrrolidine-2-carboxylic acid (1-cyano-cyclopropyl)-amide] | 0.275 | 21.5 | 
